Source: patent publication US20240165137A1, “METHODS FOR IMPROVING MUSCLE STRENGTH AND MOBILITY” (Intrinsic Medicine, Inc., priority 2020, published 2024)

Test system: CEBPB expression in LPS-stimulated THP-1 cells
Assay: Nascent RNA sequencing of LPS-stimulated THP-1 cells (CEBPB expression)
Assay type: cell-based
Settings: 10 ng/mL LPS and 250 μM 2′FL
Description: THP-1 Cells were treated with 10 ng/mL LPS or 10 ng/mL LPS and 250 μM 2′FL and extracted for nascent RNAs at 30 min and 24 hours. The nascent RNAs were sequenced and analyzed as described in Azofeifa et al. (2018), Genome Res. 28: 334-344; the contents of which are expressly incorporated by reference herein.

How did the “CEBPB maximum enrichment score (nascent RNAs, 2′FL+LPS versus LPS alone)” value (30 min) turn out when `CC1O[C@@H](OC2[C@H](O[C@H]3C(O)C(O)C(O)O[C@H]3CO)OC(CO)[C@H](O)[C@@H]2O)C(O)[C@@H](O)[C@@H]1O` (stereo partly drawn) [2′FL, 2′-fucosyllactose] was run?
The value was 40.

And the “CEBPB maximum enrichment score (nascent RNAs, 2′FL+LPS versus LPS alone)” value (24 hours)?
Its value is 20.

What about the “CEBPB expression (nascent RNAs, 2′FL+LPS versus LPS alone)” value (both the 30 min and 24 hour time points) of the same compound?
The value was “enhanced and upregulated”.
